Assay results taken from patent US11028095B2, “Spiro-lactam and bis-spiro-lactam NMDA receptor modulators and uses thereof” (Aptinyx Inc., priority 2016, dated 2021).
Where two headings read alike, the source gives them in different places.

Tests used:
[1] = system: positive (hedonic) 50-kHz ultrasonic vocalizations (USVs); experiment: Positive Emotional Learning (PEL) test; format: in vivo; conditions: rat, PO, dose 0.1 mg/kg, one hour after administration
Method: Experiments were conducted as described in Burgdorf et al., “The effect of selective breeding for differential rates of 50-kHz ultrasonic vocalizations on emotional behavior in rats,” Devel. […] Rat 50-kHz ultrasonic vocalization (hedonic USVs) is a validated model for the study of positive affective state and is best elicited by rough-and-tumble play.
The PEL assay measures the acquisition of positive (hedonic) 50-kHz ultrasonic vocalizations (USVs) to a social stimulus, heterospecific rough and tumble play stimulation. Heterospecific rough-and-tumble play stimulation was administered by the experimenter's right hand. One hour after administration of test compound or vehicle negative control (0.5% sodium carboxymethyl cellulose in 0.9% sterile saline vehicle), animals received 3 min of heterospecific rough-and-tumble play that consisted of alternating 15 sec blocks of heterospecific play and 15 sec of no-stimulation. […] Frequency modulated 50-kHz USVs that occurred during each of the no-stimulation periods were quantified to measure PEL. Animals were not habituated to play stimulation before testing. Positive emotional learning was measured during the conditioned stimulus (CS) trials preceding the tickle unconditioned stimulus (UCS) trials. Animals received 15 second trials consisting of 6 CS and 6 UCS trials each (3 min total).

[2] = Microsomal stability (Human); format: in vitro ADME; conditions: human microsomes
Method: (§1) Microsomal stability of disclosed compounds was investigated. The following table indicates the percent of compound remaining after 60 minutes.

IV pharmacokinetics = format: in vivo; conditions: rat, in vivo, 2 mg/kg, Sprague Dawley rats, normal saline; for C0: read-out: C0; for Vd: read-out: Vss
Method: Sprague Dawley rats were dosed intravenously using a normal saline formulation containing 2 mg/kg of the compounds identified in the below table. The table below summarizes the results of the IV pharmacokinetics.

[3] = Oral pharmacokinetics (plasma, brain, CSF); format: in vivo; conditions: Sprague Dawley rats, per os, 10 mg/kg; for AUC(0-t) / bioavailability / Tmax / Cmax: rat, plasma, po; for Tmax: normal saline, read-out: Tmax; for Cmax: read-out: Cmax
Method: In another experiment, Sprague Dawley rats were dosed per os using a normal saline formulation containing 10 mg/kg of the compounds identified in the table below. Plasma, brain, and CSF samples were analyzed at various time points over a 24 hour period. The table below summarizes the results of the oral pharmacokinetics.

Plasma stability (Human) = format: in vitro ADME
Method: (§2) Plasma stability of disclosed compounds was investigated. The following table indicates the percent of compound remaining after 60 minutes.

[4] = target: T1, NMDAR2A expressing HEK cell membranes (Homo sapiens, UniProt Q12879); experiment: NMDAR agonist assay, [3H]MK-801 binding, NMDAR2A; format: biochemical; conditions: 50 μM glutamate
T1 construct: expressed in transfected cells; host or cells: HEK cells (membrane extract)
T1 sequence (Q12879 23-1464, other chains not shown): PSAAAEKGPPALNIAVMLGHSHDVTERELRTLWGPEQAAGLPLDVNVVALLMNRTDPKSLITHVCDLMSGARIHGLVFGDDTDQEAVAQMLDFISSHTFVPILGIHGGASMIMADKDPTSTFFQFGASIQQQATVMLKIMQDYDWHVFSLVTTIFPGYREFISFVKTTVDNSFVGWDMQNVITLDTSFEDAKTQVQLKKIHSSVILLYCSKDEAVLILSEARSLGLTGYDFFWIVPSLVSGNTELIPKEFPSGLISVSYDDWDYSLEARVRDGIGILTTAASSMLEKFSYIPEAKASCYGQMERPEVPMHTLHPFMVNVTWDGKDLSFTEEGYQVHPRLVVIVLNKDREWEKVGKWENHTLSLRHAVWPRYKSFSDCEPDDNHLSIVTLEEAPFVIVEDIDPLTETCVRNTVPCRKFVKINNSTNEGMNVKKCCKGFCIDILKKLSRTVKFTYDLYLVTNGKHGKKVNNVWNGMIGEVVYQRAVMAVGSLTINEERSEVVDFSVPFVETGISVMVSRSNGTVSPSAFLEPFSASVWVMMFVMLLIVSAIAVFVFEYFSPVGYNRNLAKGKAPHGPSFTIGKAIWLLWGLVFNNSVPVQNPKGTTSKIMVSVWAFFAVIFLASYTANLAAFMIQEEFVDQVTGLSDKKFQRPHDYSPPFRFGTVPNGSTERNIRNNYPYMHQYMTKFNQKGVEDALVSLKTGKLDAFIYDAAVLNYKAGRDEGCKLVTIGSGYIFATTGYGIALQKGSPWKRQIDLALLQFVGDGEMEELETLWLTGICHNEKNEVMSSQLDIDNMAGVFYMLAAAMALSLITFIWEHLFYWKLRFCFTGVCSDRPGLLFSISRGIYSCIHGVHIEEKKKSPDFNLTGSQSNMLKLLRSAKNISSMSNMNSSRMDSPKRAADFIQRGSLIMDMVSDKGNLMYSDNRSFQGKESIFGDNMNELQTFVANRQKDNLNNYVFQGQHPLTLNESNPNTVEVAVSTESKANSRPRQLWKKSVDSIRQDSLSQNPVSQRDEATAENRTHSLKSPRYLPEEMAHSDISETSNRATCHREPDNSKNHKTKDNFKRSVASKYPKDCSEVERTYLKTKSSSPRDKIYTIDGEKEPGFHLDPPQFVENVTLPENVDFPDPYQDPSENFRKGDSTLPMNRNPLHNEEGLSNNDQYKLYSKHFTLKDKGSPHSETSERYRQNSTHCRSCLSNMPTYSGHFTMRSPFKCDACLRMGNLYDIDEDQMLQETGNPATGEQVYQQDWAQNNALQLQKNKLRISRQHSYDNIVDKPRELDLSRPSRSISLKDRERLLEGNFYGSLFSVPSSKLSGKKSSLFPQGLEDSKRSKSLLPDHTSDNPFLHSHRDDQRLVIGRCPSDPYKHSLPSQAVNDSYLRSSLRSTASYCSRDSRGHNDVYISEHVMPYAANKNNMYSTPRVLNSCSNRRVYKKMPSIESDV
Method: (§3) (nonequilibrium conditions).
(§4) The baseline value was determined from the best fit curve of the DPM values modeled using the GraphPad program and the log(agonist) vs. response(three parameters) algorithm was then subtracted from all points in the dataset.

[5] = target: T2, NMDAR2C expressing HEK cell membranes (Homo sapiens, UniProt Q05586+Q14957); experiment: NMDAR agonist assay, [3H]MK-801 binding, NMDAR2C; format: biochemical; conditions: for EC50: [3H]MK-801 binding
T2 construct: expressed in transfected cells; host or cells: HEK cells (membrane extract)
T2 sequence (Q14957 20-1233, other chains not shown): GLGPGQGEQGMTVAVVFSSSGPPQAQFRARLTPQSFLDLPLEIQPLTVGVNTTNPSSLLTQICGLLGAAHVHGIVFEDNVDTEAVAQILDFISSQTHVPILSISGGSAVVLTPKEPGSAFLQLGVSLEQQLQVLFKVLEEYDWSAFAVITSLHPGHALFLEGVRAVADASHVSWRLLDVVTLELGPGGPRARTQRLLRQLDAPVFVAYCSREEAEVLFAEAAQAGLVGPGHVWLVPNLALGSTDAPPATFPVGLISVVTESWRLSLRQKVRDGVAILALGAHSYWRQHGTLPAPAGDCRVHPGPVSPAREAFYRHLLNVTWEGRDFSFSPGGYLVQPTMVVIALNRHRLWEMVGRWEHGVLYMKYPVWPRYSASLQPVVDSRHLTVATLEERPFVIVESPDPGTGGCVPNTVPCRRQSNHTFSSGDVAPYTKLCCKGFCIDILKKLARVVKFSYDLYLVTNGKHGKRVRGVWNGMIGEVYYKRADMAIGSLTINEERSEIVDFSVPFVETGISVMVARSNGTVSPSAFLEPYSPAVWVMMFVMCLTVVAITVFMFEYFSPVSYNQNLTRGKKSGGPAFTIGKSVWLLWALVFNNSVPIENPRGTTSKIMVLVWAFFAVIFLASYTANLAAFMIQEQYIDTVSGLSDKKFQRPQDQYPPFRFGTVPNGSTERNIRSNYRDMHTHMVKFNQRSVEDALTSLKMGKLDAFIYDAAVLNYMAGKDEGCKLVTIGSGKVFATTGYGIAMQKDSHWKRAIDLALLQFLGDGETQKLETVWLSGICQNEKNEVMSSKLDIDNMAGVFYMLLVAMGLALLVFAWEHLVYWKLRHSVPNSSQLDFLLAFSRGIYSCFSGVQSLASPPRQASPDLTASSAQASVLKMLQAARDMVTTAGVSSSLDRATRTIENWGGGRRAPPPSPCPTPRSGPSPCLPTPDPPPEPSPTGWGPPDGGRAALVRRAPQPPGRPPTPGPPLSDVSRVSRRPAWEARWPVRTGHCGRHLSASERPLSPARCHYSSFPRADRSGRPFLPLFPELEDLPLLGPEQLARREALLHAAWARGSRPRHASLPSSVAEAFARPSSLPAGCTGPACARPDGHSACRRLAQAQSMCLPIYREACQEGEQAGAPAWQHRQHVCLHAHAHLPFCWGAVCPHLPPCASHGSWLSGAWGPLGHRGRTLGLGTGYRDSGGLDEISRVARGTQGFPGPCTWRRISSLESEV
Method: as §3, §4

Plasma stability (Rat) = format: in vitro ADME
Method: as §2

[6] = target: T3, NMDAR2D expressing HEK cell membranes (Homo sapiens, UniProt O15399+Q05586); experiment: NMDAR agonist assay, [3H]MK-801 binding, NMDAR2D; format: biochemical; conditions: for EC50: [3H]MK-801 binding; for Emax: read-out: NMDAR2D: % maximal [3H]MK-801 binding relative to 1 mM glycine
T3 construct: expressed in transfected cells; host or cells: HEK cells (membrane extract)
T3 sequence (O15399 28-1336, other chains not shown): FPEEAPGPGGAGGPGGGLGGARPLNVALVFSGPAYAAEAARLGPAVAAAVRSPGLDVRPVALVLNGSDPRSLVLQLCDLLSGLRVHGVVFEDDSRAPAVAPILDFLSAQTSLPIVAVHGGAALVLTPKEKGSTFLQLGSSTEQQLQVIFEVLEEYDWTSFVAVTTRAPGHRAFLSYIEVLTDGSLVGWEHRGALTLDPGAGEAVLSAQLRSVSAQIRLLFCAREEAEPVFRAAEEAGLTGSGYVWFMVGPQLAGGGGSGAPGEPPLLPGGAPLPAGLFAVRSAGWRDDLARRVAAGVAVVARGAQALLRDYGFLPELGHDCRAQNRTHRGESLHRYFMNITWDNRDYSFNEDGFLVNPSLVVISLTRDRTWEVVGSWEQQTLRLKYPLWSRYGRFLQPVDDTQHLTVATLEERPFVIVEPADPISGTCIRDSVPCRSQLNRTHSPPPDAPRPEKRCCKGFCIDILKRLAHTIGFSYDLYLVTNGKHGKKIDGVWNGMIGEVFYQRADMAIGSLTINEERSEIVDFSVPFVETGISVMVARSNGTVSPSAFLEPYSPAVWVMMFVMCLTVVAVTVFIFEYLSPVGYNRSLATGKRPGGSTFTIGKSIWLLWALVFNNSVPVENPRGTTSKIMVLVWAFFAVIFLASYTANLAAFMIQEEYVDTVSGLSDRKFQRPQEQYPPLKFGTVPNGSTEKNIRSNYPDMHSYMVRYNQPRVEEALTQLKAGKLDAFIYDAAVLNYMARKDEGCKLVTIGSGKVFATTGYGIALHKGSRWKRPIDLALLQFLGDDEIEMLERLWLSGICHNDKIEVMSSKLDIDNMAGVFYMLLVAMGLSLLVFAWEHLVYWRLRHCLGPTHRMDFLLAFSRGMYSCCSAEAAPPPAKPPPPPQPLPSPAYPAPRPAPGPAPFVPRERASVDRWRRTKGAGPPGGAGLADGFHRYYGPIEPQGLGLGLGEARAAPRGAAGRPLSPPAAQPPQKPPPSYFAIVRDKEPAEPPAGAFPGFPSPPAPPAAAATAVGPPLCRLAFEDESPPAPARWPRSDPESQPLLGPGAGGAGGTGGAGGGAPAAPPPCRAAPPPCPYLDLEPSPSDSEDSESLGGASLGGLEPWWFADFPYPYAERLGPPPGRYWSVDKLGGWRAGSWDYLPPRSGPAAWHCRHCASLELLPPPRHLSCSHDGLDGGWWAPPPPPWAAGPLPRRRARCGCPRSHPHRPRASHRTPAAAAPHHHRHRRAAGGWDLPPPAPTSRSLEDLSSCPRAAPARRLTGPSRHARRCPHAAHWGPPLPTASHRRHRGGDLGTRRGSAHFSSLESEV
Method: as §3, §4

[7] = target: T4, NMDAR2B expressing HEK cell membranes (Homo sapiens, UniProt Q13224); experiment: NMDAR agonist assay, [3H]MK-801 binding, NMDAR2B; format: biochemical; conditions: 50 μM glutamate; relative to 1 mM glycine
T4 construct: expressed in transfected cells; host or cells: HEK cells (membrane extract)
Method: as §3, §4

[8] = target: T5, NMDAR2B expressing HEK cell membranes (Homo sapiens, UniProt Q05586+Q13224); experiment: NMDAR agonist assay, [3H]MK-801 binding, NMDAR2B; format: biochemical; conditions: [3H]MK-801 binding
T5 construct: expressed in transfected cells; host or cells: HEK cells (membrane extract)
Method: as §3, §4

[9] = Microsomal stability (Rat); format: in vitro ADME; conditions: rat microsomes
Method: as §1

[10] = target: T6, NMDAR2A expressing HEK cell membranes (Homo sapiens, UniProt Q05586+Q12879); experiment: NMDAR agonist assay, [3H]MK-801 binding, NMDAR2A; format: biochemical; conditions: NMDAR2A: log EC50, 50 μM glutamate; [3H]MK-801 binding
T6 construct: expressed in transfected cells; host or cells: HEK cells (membrane extract)
Method: as §3, §4

[11] = system: Sciatic nerve chronic constriction nerve injury; experiment: Bennett nerve injury assay (mechanical analgesia, paw withdrawal threshold); format: in vivo, Sprague Dawley rats; conditions: 150 mg/kg PO
Method: The Bennett model of mechanical analgesia is used to assess the analgesic effects of compounds as measured by paw withdrawal threshold. Bennett G J, Xie Y K, “A peripheral mononeuropathy in rat that produces disorders of pain sensation like those seen in man,” Pain 33:87-107, 1988. […] Vehicle animals receive the surgery and then receive vehicle rather than test compound. Animals were tested 1 hr, 24 h and 1 wk post-test compound or vehicle administration.
Male 2-3 month old Sprague Dawley rats were used. Harlan was the supplier for all studies. Rats were housed in Lucite cages with aspen wood chip bedding, maintained on a 12:12 light:dark cycle (lights on at 5 AM), and given ad libitum access to Purina lab chow (USA) and tap water throughout the study.
Rats were anesthetized using inhaled isoflurane (2.5%). Sciatic nerve chronic constriction nerve injury surgery was performed as previously described (Bennett and Xie, 1988). An incision (˜1.5 cm in length) was made with a scalpel blade dorsally through skin on the right hind limb, parallel and posterior to femur. Using a small pointed hemostat, the biceps femoris and gluteus superficialis muscles were separated. Using curved blunt forceps, the common sciatic nerve was isolated and exposed. For the mechanical analgesia studies, the whole sciatic nerve was ligated. Using hemostats/forceps and chromic gut (5-0), the nerve was loosely ligated with a square knot; 3 ligatures, 1 mm apart were placed on the nerve. […] Testing occurred approximately 2 weeks post-surgery.
During testing, rats were acclimated to the surface of a suspended wire mesh grid (1 cm×1 cm, with the wire being 0.3 cm in diameter) for 15-20 min Starting from the smallest, each Von Frey filament was pressed perpendicularly to the plantar surface of the affected (ipsilateral) hind paw until slightly bent and then held for 6 second. If an obvious hind paw withdrawal or a flinching behavior immediately after the withdrawal of the filament was not observed, the next larger filament was used in the same manner. In case of a response, a lower filament was used. This was repeated until six responses were collected.
For all studies, animals were baselined prior to study start to test for allodynia (defined as a paw withdrawal threshold under 5). A subset of animals was tested with gabapentin (150 mg/kg, PO) to ensure at least 50% analgesia. Once it was confirmed animals were ready for study initiation, animals were balanced across groups. All study investigators were blind to treatment conditions. Animals were dosed with 0.1, 1 or 10 mg/kg of test compound via oral gavage (PO), control sets of animals were dosed with gabapentin (150 mg/kg, PO) or vehicle (0.5% Na-CMC in 0.9% sterile saline, PO). Testing occurred 1 h post-dosing with animals retested 24 hrs and 1 week post-dosing. The percent analgesia calculations for each animal were made using the following equation: % analgesia=[(log(x)−y)/((log (z)−y)]*100, where x=the paw withdrawal threshold for the drug-treated animal in grams, y=the average of the log(x) values for the vehicle treated group, and z=the paw withdrawal threshold for naïve animals in grams (historical value of 15 used). The results for Compound AD, where the percentage of analgesia is measured at 1 hour, 24 hours, and 1 week after compound administration are as follows: for 0.1 mg/kg dose: 37.8% at 1 h, 29.7% at 24 h, and 63.1% at 1 wk; for 1 mg/kg dose: 48.8% at 1 h, 20.6% at 24 h, and 19.8% at 1 wk; and for 10 mg/kg dose: 70.3% at 1 h, 38.8% at 24 h, and 11.3% at 1 wk.

CC(C)C(=O)N1C2(CCC13CNC3=O)CNC2=O (single isomer, unassigned) [AH, 5-isobutyryl-2,5,8-triazadispiro[3.1.36.24]undecane-1,7-dione]
Max Effect (mean number of 50 kHz USVs per 15 seconds) [1]: ** (**: 11-16.9)
Microsomal (Human): percent of compound remaining after 60 minutes [2]: 100%
AUC(0-t) (IV pharmacokinetics; Sprague Dawley, iv): 3020 ng·h/mL
clearance (IV pharmacokinetics; Sprague Dawley, iv): 10.9 mL/min/kg
half-life (IV pharmacokinetics; Sprague Dawley, iv): 3.68 h
C0 (IV pharmacokinetics; Sprague Dawley, iv): 3870 ng/mL
Vd (IV pharmacokinetics; Sprague Dawley, iv): 1.1 L/kg
CSF Cmax [3]: 123 ng/mL
Brain Cmax [3]: 45.8 ng/mL
AUC(0-t) ([3]; Sprague Dawley): 2570 ng·h/mL
bioavailability ([3]; Sprague Dawley): 17%
Tmax ([3]; Sprague Dawley): 1.67 h
Cmax ([3]; Sprague Dawley): 655 ng/mL
Plasma (Human): percent of compound remaining after 60 minutes (Plasma stability (Human)): 95%
EC50 ([4]; [3H]MK-801 binding, read-out: NMDAR2A: log EC50 (converted)): < 1 nM
NMDAR2A: % maximal [3H]MK-801 binding relative to 1 mM glycine [4]: + (<100%=+)
EC50 ([5]; 50 μM glutamate, read-out: NMDAR2C: log EC50 (converted)): < 1 nM
Emax ([5]; 50 μM glutamate, relative to 1 mM glycine, read-out: NMDAR2C A: % maximal [3H]MK-801 binding relative to 1 mM glycine): < 100%
Plasma (Rat): percent of compound remaining after 60 minutes (Plasma stability (Rat)): 100%
EC50 ([6]; 50 μM glutamate, read-out: NMDAR2D: log EC50 (converted)): < 1 nM
Emax ([6]; 50 μM glutamate, relative to 1 mM glycine): < 100%
NMDAR2B: % maximal [3H]MK-801 binding relative to 1 mM glycine [7]: + (<100%=+)
EC50 ([8]; 50 μM glutamate, read-out: NMDAR2B log EC50 (converted)): < 1 nM
Microsomal (Rat): percent of compound remaining after 60 minutes [9]: 100%

O=C1NCC12CCC1(CNC1=O)N2 (single isomer, unassigned) [AJ, 2,5,8-triazadispiro[3.1.36.24]undecane-1,7-dione]
Max Effect (mean number of 50 kHz USVs per 15 seconds) [1]: ** (**: 11-16.9)
Microsomal (Human): percent of compound remaining after 60 minutes [2]: 100%
AUC(0-t) (IV pharmacokinetics): 2090 ng·h/mL
clearance (IV pharmacokinetics): 15.4 mL/min/kg
half-life (IV pharmacokinetics): 0.44 h
C0 (IV pharmacokinetics): 4860 ng/mL
Vd (IV pharmacokinetics): 0.47 L/kg
CSF Cmax [3]: 71.9 ng/mL
Brain Cmax [3]: 0 ng/mL
AUC(0-t) [3]: 2060 ng·h/mL
bioavailability [3]: 20%
Tmax [3]: 0.5 h
Cmax [3]: 1160 ng/mL
Plasma (Human): percent of compound remaining after 60 minutes (Plasma stability (Human)): 90%
EC50 [10]: < 1 nM
NMDAR2A: % maximal [3H]MK-801 binding relative to 1 mM glycine [4]: + (<100%=+)
EC50 ([5]; NMDAR2C: log EC50, 50 μM glutamate): < 1 nM
Emax ([5]; read-out: NMDAR2C: % maximal [3H]MK-801 binding relative to 1 mM glycine): < 100%
Plasma (Rat): percent of compound remaining after 60 minutes (Plasma stability (Rat)): 68%
EC50 ([6]; NMDAR2D: log EC50, 50 μM glutamate): < 1 nM
Emax [6]: < 100%
NMDAR2B: % maximal [3H]MK-801 binding relative to 1 mM glycine [7]: + (<100%=+)
EC50 ([8]; NMDAR2B: log EC50, 50 μM glutamate): < 1 nM
Microsomal (Rat): percent of compound remaining after 60 minutes [9]: 100%

NCC1(CC(=O)O)CCCCC1 [gabapentin, reference compound]
analgesia, control group of the study ([11]; 1 week post-administration): under 5%
percentage of analgesia, example (typical) control value ([11]; 1 wk): 0%
percentage of analgesia, example (typical) control value ([11]; 1 h): 72%
analgesia, control group of the study ([11]; 1 h post-administration): at least 50%
percentage of analgesia, example (typical) control value ([11]; 24 h): 16%
analgesia, control group of the study ([11]; 24 h post-administration): under 5%
